Like-named read-outs stand apart in the source and are kept apart here.
Experiments:
A549 cells = assay: Proliferation Assay (A549 viability, Cell Titer Fluor, 72 hours); assay type: cell-based
Outline: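 A549 cells seeded at 1000 cells/well, rested 24 h, then exposed to compound in 0.5% DMSO for 72 h at 37 °C. Viability read by Cell Titer Fluor fluorescence; IC50 from four-parameter logistic fit.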

[1] = molecular target: purified recombinant human GAC (GLS1) (Homo sapiens (Human), UniProt O94925); assay: GLS1 Enzymatic Activity Assay (dual-coupled enzymatic assay, resorufin/Amplex UltraRed readout); assay type: biochemical;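 further: glutamate from GAC coupled via glutamate oxidase and peroxidase to resorufin, read as fluorescence (ex 530, em 590 nm) kinetically or at 20 min, four-parameter logistic IC50 fit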
Chain of purified recombinant human GAC (GLS1) (O94925 other isoform, or with tags, fused parts or gaps): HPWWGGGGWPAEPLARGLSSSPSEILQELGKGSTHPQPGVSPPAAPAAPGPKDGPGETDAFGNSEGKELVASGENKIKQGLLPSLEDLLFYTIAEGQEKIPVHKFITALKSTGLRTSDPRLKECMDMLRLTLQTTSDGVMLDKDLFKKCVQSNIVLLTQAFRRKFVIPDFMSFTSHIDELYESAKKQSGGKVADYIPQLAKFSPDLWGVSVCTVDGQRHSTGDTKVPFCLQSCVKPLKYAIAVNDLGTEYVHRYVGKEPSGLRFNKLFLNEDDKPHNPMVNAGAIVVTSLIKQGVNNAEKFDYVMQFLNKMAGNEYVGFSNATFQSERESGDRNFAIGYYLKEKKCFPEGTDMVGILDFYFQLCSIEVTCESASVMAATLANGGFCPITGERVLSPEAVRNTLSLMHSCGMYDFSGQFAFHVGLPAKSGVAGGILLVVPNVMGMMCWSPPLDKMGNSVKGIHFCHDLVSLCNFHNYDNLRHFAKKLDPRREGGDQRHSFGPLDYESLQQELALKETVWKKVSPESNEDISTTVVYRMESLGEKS

SMILES	EC50 (A549 cells)	IC50 [1]	EC50 (A549 cells; Homo sapiens, A549, 72 h)
O=C(NCc1cccc(OC(F)(F)F)c1)c1cn(CCCCn2cc(C(=O)NCC3CC4CCC3O4)nn2)nn1 (stereo not shown) [Example 115, N-{7-oxabicyclo[2.2.1]heptan-2-ylmethyl}-1-{4-[4-({[3-(trifluoromethoxy)phenyl]methyl}carbamoyl)-1H-1,2,3-triazol-1-yl]butyl}-1H-1,2,3-triazole-4-carboxamide]	500 to 5000 nM	500 to 5000 nM	
O=C(NCc1ncccc1F)c1cn(CCC(F)Cn2cc(C(=O)NCc3cccc(OC(F)(F)F)c3)nn2)nn1 (stereo not shown) [Example 440, 1-{3-fluoro-4-[4-({[3-(trifluoromethoxy)phenyl]methyl}carbamoyl)-1H-1,2,3-triazol-1-yl]butyl}-N-[(3-fluoropyridin-2-yl)methyl]-1H-1,2,3-triazole-4-carboxamide]		< 100 nM	100 to 500 nM
O=C(NCc1ccc(OC(F)(F)F)cc1)c1cn(CCC(F)Cn2cc(C(=O)NCc3cc(C(F)(F)F)ccn3)nn2)nn1 (stereo not shown) [Example 469, 1-{2-fluoro-4-[4-({[4-(trifluoromethoxy)phenyl]methyl}carbamoyl)-1H-1,2,3-triazol-1-yl]butyl}-N-{[4-(trifluoromethyl)pyridin-2-yl]methyl}-1H-1,2,3-triazole-4-carboxamide]		< 100 nM	< 100 nM
Cc1ccc(CC(=O)Nc2cn(CCCCn3cc(C(=O)NCc4cccnc4)nn3)nn2)cn1 [Example 322, 1-(4-{4-[2-(6-methylpyridin-3-yl)acetamido]-1H-1,2,3-triazol-1-yl}butyl)-N-(pyridin-3-ylmethyl)-1H-1,2,3-triazole-4-carboxamide]		100 to 500 nM	500 to 5000 nM
O=C(Cc1cccc(OC(F)(F)F)c1)Nc1nnc(CCCCn2cc(C(=O)NCC3CCOC3)nn2)s1 (stereo not shown) [Example 12, N-(oxolan-3-ylmethyl)-1-[4-(5-{2-[3-(trifluoromethoxy)phenyl]acetamido}-1,3,4-thiadiazol-2-yl)butyl]-1H-1,2,3-triazole-4-carboxamide]		< 100 nM	< 100 nM
O=C(NCc1cncc(C(F)(F)F)c1)c1cn(CCCCn2cc(C(=O)NCc3cncc(C(F)(F)F)c3)nn2)nn1 [Example 140, N-{[5-(trifluoromethyl)pyridin-3-yl]methyl}-1-{4-[4-({[5-(trifluoromethyl)pyridin-3-yl]methyl}carbamoyl)-1H-1,2,3-triazol-1-yl]butyl}-1H-1,2,3-triazole-4-carboxamide]		< 100 nM	< 100 nM
O=C(Cc1cc(OC(F)(F)F)ccc1F)Nc1ccc(CCCCn2cc(C(=O)NC3COC3)nn2)nn1 [Example 581, 1-(4-(6-(2-(2-fluoro-5-(trifluoromethoxy)phenyl)acetamido)pyridazin-3-yl)butyl)-N-(oxetan-3-yl)-1H-1,2,3-triazole-4-carboxamide]		< 100 nM	100 to 500 nM
O=C(NCc1cccc(OC(F)(F)F)c1)c1cn(CCC(F)Cn2cc(C(=O)N[C@@H](CO)c3ccccc3)nn2)nn1 (stereo partly drawn) [Example 461, 1-{2-fluoro-4-[4-({[3-(trifluoromethoxy)phenyl]methyl}carbamoyl)-1H-1,2,3-triazol-1-yl]butyl}-N-[(1R)-2-hydroxy-1-phenylethyl]-1H-1,2,3-triazole-4-carboxamide]		100 to 500 nM	500 to 5000 nM
Cc1ccc(CNC(=O)c2cn(CCCCn3cc(NC(=O)Cc4ccccn4)nn3)nn2)cn1 [Example 314, N-[(6-methylpyridin-3-yl)methyl]-1-(4-{4-[2-(pyridin-2-yl)acetamido]-1H-1,2,3-triazol-1-yl}butyl)-1H-1,2,3-triazole-4-carboxamide]		100 to 500 nM	500 to 5000 nM
CCNC(=O)c1nnc(CCC(F)Cn2cc(C(=O)NCc3cccc(OC(F)(F)F)c3)nn2)s1 (stereo not shown) [Example 522, N-ethyl-5-{3-fluoro-4-[4-({[3-(trifluoromethoxy)phenyl]methyl}carbamoyl)-1H-1,2,3-triazol-1-yl]butyl}-1,3,4-thiadiazole-2-carboxamide]		< 100 nM	100 to 500 nM
O=C(NCc1cc(C(F)(F)F)ccn1)c1cn(CC(F)CCc2nnc(C(=O)NCc3cc(OC(F)(F)F)ccc3F)s2)nn1 (stereo not shown) [Example 449, 5-{3-fluoro-4-[4-({[4-(trifluoromethyl)pyridin-2-yl]methyl}carbamoyl)-1H-1,2,3-triazol-1-yl]butyl}-N-{[2-fluoro-5-(trifluoromethoxy)phenyl]methyl}-1,3,4-thiadiazole-2-carboxamide]		< 100 nM	< 100 nM
O=C(Cc1cccc(OC(F)(F)F)c1)Nc1nnc(CCC(F)Cn2cc(C(=O)NCC3CC3)nn2)s1 (stereo not shown) [Example 535, N-(cyclopropylmethyl)-1-[2-fluoro-4-(5-{2-[3-(trifluoromethoxy)phenyl]acetamido}-1,3,4-thiadiazol-2-yl)butyl]-1H-1,2,3-triazole-4-carboxamide]		< 100 nM	100 to 500 nM
O=C(NCc1cc(C(F)(F)F)ccn1)c1cn(CC(F)CCc2nnc(C(=O)NCc3cccc(C(F)(F)F)n3)s2)nn1 (stereo not shown) [Example 491, 5-{3-fluoro-4-[4-({[4-(trifluoromethyl)pyridin-2-yl]methyl}carbamoyl)-1H-1,2,3-triazol-1-yl]butyl}-N-{[6-(trifluoromethyl)pyridin-2-yl]methyl}-1,3,4-thiadiazole-2-carboxamide]		< 100 nM	< 100 nM
Cc1ccc(CNC(=O)c2cn(CCCCn3cc(NC(=O)Cc4ccc(C)nc4)nn3)nn2)cn1 [Example 316, 1-(4-{4-[2-(6-methylpyridin-3-yl)acetamido]-1H-1,2,3-triazol-1-yl}butyl)-N-[(6-methylpyridin-3-yl)methyl]-1H-1,2,3-triazole-4-carboxamide]		< 100 nM	500 to 5000 nM
NC(=O)c1cn(CC(F)CCc2nnc(NC(=O)Cc3cccc(OC(F)(F)F)c3)s2)nn1 (stereo not shown) [Example 530, 1-[2-fluoro-4-(5-{2-[3-(trifluoromethoxy)phenyl]acetamido}-1,3,4-thiadiazol-2-yl)butyl]-1H-1,2,3-triazole-4-carboxamide]		< 100 nM	500 to 5000 nM
CNC(=O)c1nnc(CCC(F)Cn2cc(C(=O)NCc3ccccn3)nn2)s1 (stereo not shown) [Example 557, 5-(3-fluoro-4-{4-[(pyridin-2-ylmethyl)carbamoyl]-1H-1,2,3-triazol-1-yl}butyl)-N-methyl-1,3,4-thiadiazole-2-carboxamide]		500 to 5000 nM	500 to 5000 nM
O=C(CC1CCCC1)Nc1cn(CCCCn2cc(C(=O)NCc3ccccn3)nn2)nn1 [Example 277, 1-{4-[4-(2-cyclopentylacetamido)-1H-1,2,3-triazol-1-yl]butyl}-N-(pyridin-2-ylmethyl)-1H-1,2,3-triazole-4-carboxamide]		100 to 500 nM	500 to 5000 nM
CNC(=O)c1cn(C[C@H](F)CCc2ccc(NC(=O)Cc3cc(C4CC4)ccn3)nn2)nn1 [Example 275, (R)-1-(4-(6-(2-(4-cyclopropylpyridin-2-yl)acetamido)pyridazin-3-yl)-2-fluorobutyl)-N-methyl-1H-1,2,3-triazole-4-carboxamide]		< 100 nM	< 100 nM
O=C(CN1CC(F)(F)C1)Nc1cn(CCCCn2cc(C(=O)NCc3cc(OC(F)(F)F)ccc3F)nn2)nn1 [Example 353, 1-(4-{4-[2-(3,3-difluoroazetidin-1-yl)acetamido]-1H-1,2,3-triazol-1-yl}butyl)-N-{[2-fluoro-5-(trifluoromethoxy)phenyl]methyl}-1H-1,2,3-triazole-4-carboxamide]		< 100 nM	100 to 500 nM
CNC(=O)c1cn(CCCCc2ccc(NC(=O)Cc3cccc(OCCOC)c3)nn2)nn1 [Example 173, 1-[4-(6-{2-[3-(2-methoxyethoxy)phenyl]acetamido}pyridazin-3-yl)butyl]-N-methyl-1H-1,2,3-triazole-4-carboxamide]		100 to 500 nM	100 to 500 nM
O=C(Cc1cccc(OC(F)(F)F)c1)Nc1ccc(CCCCn2cc(C(=O)NCC3COC3)nn2)nn1 [Example 550, N-(oxetan-3-ylmethyl)-1-[4-(6-{2-[3-(trifluoromethoxy)phenyl]acetamido}pyridazin-3-yl)butyl]-1H-1,2,3-triazole-4-carboxamide]		< 100 nM	100 to 500 nM
CNC(=O)c1cn(CC(F)CCc2nnc(C(=O)NCc3ccccn3)s2)nn1 (stereo not shown) [Example 570, 5-(3-fluoro-4-(4-(methylcarbamoyl)-1H-1,2,3-triazol-1-yl)butyl)-N-(pyridin-2-ylmethyl)-1,3,4-thiadiazole-2-carboxamide]		100 to 500 nM	500 to 5000 nM
CNC(=O)c1cn(CC(F)CCc2nnc(NC(=O)Cc3cccnc3)s2)nn1 (stereo not shown) [Example 578, 1-(2-fluoro-4-(5-(2-(pyridin-3-yl)acetamido)-1,3,4-thiadiazol-2-yl)butyl)-N-methyl-1H-1,2,3-triazole-4-carboxamide]		< 100 nM	500 to 5000 nM
O=C(CN1CCC(F)(F)CC1)Nc1cn(CCCCn2cc(C(=O)NCc3cc(OC(F)(F)F)ccc3F)nn2)nn1 [Example 360, 1-(4-{4-[2-(4,4-difluoropiperidin-1-yl)acetamido]-1H-1,2,3-triazol-1-yl}butyl)-N-{[2-fluoro-5-(trifluoromethoxy)phenyl]methyl}-1H-1,2,3-triazole-4-carboxamide]		< 100 nM	< 100 nM
O=C(Cc1cccc(OC(F)(F)F)c1)Nc1nnc(CCC(F)Cn2cc(C(=O)NCc3cncc(C(F)(F)F)c3)nn2)s1 (stereo not shown) [Example 496, 1-[2-fluoro-4-(5-{2-[3-(trifluoromethoxy)phenyl]acetamido}-1,3,4-thiadiazol-2-yl)butyl]-N-{[5-(trifluoromethyl)pyridin-3-yl]methyl}-1H-1,2,3-triazole-4-carboxamide]		< 100 nM	< 100 nM
O=C(NCc1cccc(C(F)(F)F)c1)c1cn(CC(F)CCc2nnc(C(=O)NCc3cncc(C(F)(F)F)c3)s2)nn1 (stereo not shown) [Example 484, 5-{3-fluoro-4-[4-({[3-(trifluoromethyl)phenyl]methyl}carbamoyl)-1H-1,2,3-triazol-1-yl]butyl}-N-{[5-(trifluoromethyl)pyridin-3-yl]methyl}-1,3,4-thiadiazole-2-carboxamide]		< 100 nM	< 100 nM
